Measurements from patent US20240335431A1, “1-H-PYRROLO[2,3-c]PYRIDINE COMPOUNDS” (Acerta Pharma B.V., priority 2023, published 2024).
Like-named read-outs stand apart in the source and are kept apart here.

Experiments:
MV4;11 cells = test: Proliferation assay, MV4;11 (CellTiter-Glo, 7 days); assay type: cell-based, human; details: read-out: MV-4-11 IC50
Procedure, shortened: (§1)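 Cells seeded at 125 (MOLM-13), 300 (MV4;11), 75 (OCI-AML3) or 200 (HEL) per well were exposed to 3.16-fold compound dilutions (0.1% DMSO) for 7 days at 37° C. Viability by CellTiter-Glo luminescence, normalized to DMSO (100%) and day-0 plate (0%); IC50 from one-site dose-response fit.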

HEL cells = test: Proliferation assay, HEL control cell line (CellTiter-Glo, 7 days); assay type: cell-based, human
Procedure, shortened: as §1

[1] = Caco-2 cell monolayers intrinsic permeation assay in the presence of efflux inhibitors; assay type: in vitro ADME; details: Caco-2, with efflux inhibitors
Source text: Caco-2 cells were obtained from American Type Culture Collection (ATCC). HEPES, penicillin, streptomycin, bovine serum albumin (BSA) were obtained from Beijing Xinjingke Biotechnology Co, Ltd. Fetal bovine serum, Hank's balanced salt solution (HBSS) and non-essential amino acids (NEAA) were purchased from Gibco. Dulbecco's Modified Eagle's Medium (DMEM) was purchased from Corning and MES from Sigma. HTS Transwell-24 permeable supports were purchased from Corning. Zosuquidar and Ko-143 were obtained from MedChemExpress and Benzbromarone from Sigma.
The Caco-2 cell culture medium consisted of DMEM with high glucose and L-glutamine supplemented with 10% FBS, 0.1 mg/mL streptomycin, 100 units of penicillin, 0.6 mg/mL kanamycin sulfate and 1×NEAA. […] culture medium was added to each Transwell insert with 800 mL added to each well of the reservoir. After incubation at 37° C. in 5% CO2 for 1 hour, the plates were ready for seeding.
The cells were cultivated in T-75 flasks at 37° C., 5% CO2, 95% relative humidity. At 80 to 90% confluence, cells were treated with trypsin/EDTA treatment until they became detached. The trypsin/EDTA was inactivated by adding excess serum containing medium. The cell suspension was centrifuged at 120 g for 10 minutes followed by resuspension of the cell pellet in seeding medium at a cell density of 7.92×10^5 cells/mL.
[…] of the resulting cell suspension was added to each well of the Transwell plate and incubated for 14 to 18 days, with medium replaced every other day. After incubation for 14 to 18 days, the cells should have reached confluence and should be tested for electrical resistance using a Millicel Epithelial Volt-Ohm measuring system (Millipore).
The cell monolayers were washed twice with pre-warmed HBSS and incubated at 37° C. for 30 minutes under gentle shaking (480 rpm).
The compound under test was presented as a 10 mM DMSO stock solution. 2 mL of the 10 mM stock was added to 8 mL DMSO to produce a 2 mM stock. 2 mL was added to 398 mL of HBSS containing 10 mM Zosuquidar, 30 mM Benzbromarone and 2 mM KO-143 to make a […] solution.
210 mL of the test compound solution was added to the apical compartment of the Transwell plate, with a 10 mL sample taken to act as the time 0 sample. The wells of the receiver (basolateral) compartment were filled with 800 mL HBSS (containing the efflux inhibitors). The plates were incubated at 37° C. with shaking at 480 rpm for 120 minutes with sampling at 45 and 120 minutes.
At each sampling time (0, 45 and 120 minutes) 10 mL was removed from the apical compartment and add to 90 mL (HBSS containing the efflux inhibitors). 100 mL was removed from each basolateral compartment. 3 volumes of cold acetonitrile containing internal standard was added to each sample and vortex mixed for 10 minutes at 100 rpm. Samples were then centrifuged at 400 rpm for 20 minutes. 50 mL of the supernatant was taken for LC/MS/MS analysis to determine compound concentration.
The apparent permeability (Papp), in units of centimetre per second, were calculated for Caco-2 drug transport using the following equation: […]
Where CR is the concentration of compound in the receiver side at the respective time point, CD is the concentration of compound in the donor side at the respective timepoint. Area is the surface area of the membrane and time is 4500 seconds (75×60 seconds).

IC50 (MV4;11 cells; Homo sapiens, MV4-11, 168 h) [nM]	Papp A→B [1] [×10⁻⁶ cm/s]	SMILES	IC50 (HEL cells; Homo sapiens, HEL, 168 h) [nM]	IC50 (MV4;11 cells) [nM]	IC50 (HEL cells) [nM]
46	< 0.5	CC(C)N(C(=O)c1cc(F)ccc1-n1cc(C(=O)C2CN(C(=O)[C@H]3NC4CCC3CC4)C2)c2ccncc21)C(C)C [Example 6, (S)-2-(3-(1-(2-Azabicyclo[2.2.2]octane-3-carbonyl)azetidine-3-carbonyl)-1H-pyrrolo[2,3-c]pyridin-1-yl)-5-fluoro-N,N-diisopropylbenzamide]	> 10000	–	–
35	1.9	CC(C)N(C(=O)c1cc(F)ccc1-n1cc(C(=O)C2CCN(C(=O)[C@@H]3CCC(C)(C)N3)CC2)c2ccncc21)C(C)C [Example 27, (S)-2-(3-(1-(5,5-Dimethylpyrrolidine-2-carbonyl)piperidine-4-carbonyl)-1H-pyrrolo[2,3-c]pyridin-1-yl)-5-fluoro-N,N-diisopropylbenzamide]	> 10000	–	–
–	4.9	Cc1c(C(=O)[C@@H]2CCN(C(=O)[C@@H]3CC[C@H](C)N3)[C@@H](C)C2)c2ccncc2n1-c1ccc(F)cc1C(=O)N(C(C)C)C(C)C (stereo in doubt) [Example 62, 5-Fluoro-N,N-diisopropyl-2-(2-methyl-3-((2S,4RS)-2-methyl-1-((2S,5S)-5-methylpyrrolidine-2-carbonyl)piperidine-4-carbonyl)-1H-pyrrolo[2,3-c]pyridin-1-yl)benzamide]	> 10000	–	–
166	2.7	CC(C)N(C(=O)c1cc(F)ccc1-n1cc(C(=O)[C@H]2CCN(C[C@H]3CC[C@H](NS(C)(=O)=O)CC3)C2)c2ccncc21)C(C)C [Example 1, 5-Fluoro-N,N-diisopropyl-2-(3-((S)-1-(((1r,4S)-4-(methylsulfonamido)-cyclohexyl)methyl)pyrrolidine-3-carbonyl)-1H-pyrrolo[2,3-c]pyridin-1-yl)benzamide]	> 10000	–	–
–	–	Cc1c(C(=O)C2CCN(C(=O)[C@H]3NC[C@@H]4C[C@@H]43)CC2)c2ccncc2n1-c1ccc(F)cc1C(=O)N(C(C)C)C(C)C (single isomer, unassigned) [Example 55-2]	–	31	> 10000
–	0.5	CC(C)c1ccncc1-c1cc(F)ccc1-n1cc(C(=O)C2CCN(C(=O)[C@H]3N[C@@H]4CC[C@H]3C4)CC2)c2ccncc21 [Example 41, (1-((1R,3S,4S)-2-Azabicyclo[2.2.1]heptane-3-carbonyl)piperidin-4-yl)(1-(4-fluoro-2-(4-isopropylpyridin-3-yl)phenyl)-1H-pyrrolo[2,3-c]pyridin-3-yl)methanone]	> 10000	–	–
–	4.3	Cc1c(C(=O)[C@@H]2CCN(C(=O)[C@@H]3CC[C@@H](C)N3)[C@@H](C)C2)c2ccncc2n1-c1ccc(F)cc1C(=O)N(C(C)C)C(C)C (stereo in doubt) [Example 64, 5-Fluoro-N,N-diisopropyl-2-(2-methyl-3-((2S,4RS)-2-methyl-1-((2S,5R)-5-methylpyrrolidine-2-carbonyl)piperidine-4-carbonyl)-1H-pyrrolo[2,3-c]pyridin-1-yl)benzamide]	> 10000	–	–
–	–	CCN(C(=O)c1cc(F)ccc1-n1c(C)c(C(=O)[C@@H]2CCN(C(=O)[C@@H]3CCC4(CC4)N3)[C@@H](C)C2)c2ccncc21)C(C)C (single isomer, unassigned) [Example 52-2, N-Ethyl-5-fluoro-N-isopropyl-2-(2-methyl-3-((2R*,4S*)-2-methyl-1-((S)-4-azaspiro[2.4]heptane-5-carbonyl)piperidine-4-carbonyl)-1H-pyrrolo[2,3-c]pyridin-1-yl)benzamide]	> 10000	56	–
29	–	Cc1c(C(=O)C2CCN(C(=O)[C@H]3NC[C@@H]4C[C@@H]43)CC2)c2ccncc2n1-c1ccc(F)cc1C(=O)N(CC(F)(F)F)C(C)C (single isomer, unassigned) [Example 51-2]	–	–	> 10000
–	–	CCN(C(=O)c1cc(F)ccc1-n1c(C)c(C(=O)C2CCN(C(=O)[C@H]3NC[C@@H]4C[C@@H]43)CC2)c2ccncc21)C(C)C (single isomer, unassigned) [Example 48-2]	–	29	> 10000
–	1.7	Cc1c(C(=O)C2CCN(C(=O)[C@H]3NC[C@@H]4C[C@@H]43)CC2)c2ccncc2n1-c1ccc(F)cc1C(=O)N(CC(F)(F)F)C(C)C (single isomer, unassigned) [Example 51-1]	> 10000	–	–
–	1.6	CC(C)c1ncsc1-c1cc(F)ccc1-n1cc(C(=O)C2CN(C(=O)[C@H]3N[C@@H]4CC[C@H]3C4)C2)c2ccncc21.O=CO [Example 12, (1-((1R,3S,4S)-2-Azabicyclo[2.2.1]heptane-3-carbonyl)azetidin-3-yl)(1-(4-fluoro-2-(4-isopropylthiazol-5-yl)phenyl)-1H-pyrrolo[2,3-c]pyridin-3-yl)methanone 1·formic acid]	> 10000	–	–
–	1.5	CCN(C(=O)c1cc(F)ccc1-n1c(C)c(C(=O)[C@@H]2CCN(C(=O)[C@@H]3CC[C@H](C)N3)[C@@H](C)C2)c2ccncc21)C(C)C (stereo in doubt) [Example 63, N-Ethyl-5-fluoro-N-isopropyl-2-(2-methyl-3-((2S,4RS)-2-methyl-1-((2S,5S)-5-methylpyrrolidine-2-carbonyl)piperidine-4-carbonyl)-1H-pyrrolo[2,3-c]pyridine-1-yl)benzamide]	> 10000	–	–
–	1.7	CCN(C(=O)c1cc(F)ccc1-n1c(C)c(C(=O)[C@@H]2CCN(C(=O)[C@@H]3CC[C@@H](C)N3)[C@@H](C)C2)c2ccncc21)C(C)C (stereo in doubt) [Example 65, N-Ethyl-5-fluoro-N-isopropyl-2-(2-methyl-3-((2S,4RS)-2-methyl-1-((2S,5R)-5-methylpyrrolidine-2-carbonyl)piperidine-4-carbonyl)-1H-pyrrolo[2,3-c]pyridin-1-yl)benzamide]	> 10000	–	–
51	–	Cc1c(C(=O)C2CCN(C(=O)[C@H]3NC[C@@H]4C[C@@H]43)CC2)c2ccncc2n1-c1ccc(F)cc1C(=O)N(C(C)C)[C@H](C)C(F)(F)F (single isomer, unassigned) [Example 57-1]	> 10000	–	–
–	–	CCN(C(=O)c1cc(F)ccc1-n1c(C)c(C(=O)C2CCN(C(=O)[C@H]3NC[C@@H]4C[C@@H]43)CC2)c2ccncc21)C(C)C (single isomer, unassigned) [Example 48-1]	–	–	> 10000

SMILES	IC50 (MV4;11 cells; Homo sapiens, MV4-11, 168 h) [nM]	Papp A→B [1] [×10⁻⁶ cm/s]	IC50 (HEL cells; Homo sapiens, HEL, 168 h) [nM]	IC50 (MV4;11 cells) [nM]	IC50 (HEL cells) [nM]
CCN(C(=O)c1cc(F)ccc1-n1c(C)c(C(=O)[C@@H]2CCN(C(=O)[C@@H]3CCC4(CC4)N3)[C@@H](C)C2)c2ccncc21)C(C)C (single isomer, unassigned) [Example 52-1, N-Ethyl-5-fluoro-N-isopropyl-2-(2-methyl-3-((2R*,4S*)-2-methyl-1-((S)-4-azaspiro[2.4]heptane-5-carbonyl)piperidine-4-carbonyl)-1H-pyrrolo[2,3-c]pyridin-1-yl)benzamide]	–	10.9	–	22	–
Cc1c(C(=O)C2CCN(C(=O)[C@@H]3CCC(C)(C)N3)CC2)c2ccncc2n1-c1ccc(F)cc1C(=O)N(C(C)C)C(C)C (single isomer, unassigned) [Compound 56-2]	35	–	–	–	> 10000
Cc1c(C(=O)C2CCN(C(=O)[C@@H]3CCC(C)(C)N3)CC2)c2ccncc2n1-c1ccc(F)cc1C(=O)N(C(C)C)C(C)C (single isomer, unassigned) [Example 56-1]	–	2.8	> 10000	–	–
